The subject of series [1] is WKY rats. To be noted: cited from earlier work.
Series [2] relates to WKY rats. To be noted: cited from earlier work. This is another data set of the same source.
In the next series the test system is mice. To be noted: cited from earlier work; for PCP-induced enhancement of immobility in the forced swimming test: doses that failed to produce antidepressant effects in control animals.
Series [3] relates to burn wounds. In words: Topical treatment of burn wounds, 7% of body surface. The following applies: for mean value of collagen tissue: sacrificed on 45th day, histopathology; for mean value of collagen concentration relative to group 1 D (placebo): placebo taken as 1100% (printed).
The next series has as its system venous ulcer. In words: Open wound healing in a patient with incurable venous ulcer. The class given is in vivo, human. To be noted: 1% BAC-3 ointment, twice daily during 41 days. Here is the method:
The BAC-3 rhamnolipid was tested in the case of open wound healing, in a patient suffering around ten years from incurable venous ulcer. On the left leg, the patient had very thick layers of collagen with fibrotic lesions. […] Moreover, after treatment was finished, not only the collagen, but also the fibrotic lesions had disappeared as well. One year after the treatment, the treated skin lesions on the left leg appear normal, and all skin collagen and fibrotic layers had disappeared.

The subject of a further series is incision wounds. In words: Tensile strength of incision wounds. The class given is in vivo, Sprague-Dawley rats. The following applies: 0.1% BAC-3, 21 days after wounding, p<0.05 by ANOVA; FIG. 3. The source says: Incision wounds. Dorsal midline incisions were made in anesthetized rats. The animals were clipped free of their fur and prepared with alcohol. A 5.0 cm, midline, full-thickness incision was made with a scalpel through the panniclus carnosus.
The wounds were immediately closed with skin sutures spaced at a distance of 0.5 cm. Seven days later, all sutures were removed. On days 14 and 21 after incision, three animals from each group were killed using an overdose of sodium pentobarbital. Using a plexiglass template, a minimum of two samples of full-thickness skin were harvested perpendicular to the long axis of the wound for tensile strength determination. The skin samples were 9.0 mm wide at the wound by 2.0 cm long.
Tensile Strength Determination. The standard wound samples for each treatment cohort were examined for tensile strength by pulling the individual wounds apart in an Instron 4201 (Universal Testing instruments, Instron Engineering Co., Canton, Mass.) material tester. Special clamps were used to securely grip the tissue to avoid slippage as the wounds were pulled at a standard cross speed of 25 mm/min. The tensile strength of healthy skin was measured in killed animals from each group.
Effect of BAC-3 on Tensile Strength of Incision Wounds (FIG. 3) with and without chlorhexidine hydrochloride. The tensile strength of incision wounds was measured 21 days after wounding. […]

The subject of series [4] is burn wounds. In words: Topical treatment of burn wounds, 15% of body surface. To be noted: 1% BAC-3 in ointment without chlorhexidine, started on 50th day after burning on open wounds; tapering regimen. The class given is in vivo, Sprague-Dawley rats. Here is the method:
Method of burning. […] (Producer: Veterinary Laboratory Inc. Lenexa, Kans.).
Four rats were burned according to the described procedure using the wider opening in the Walker device (10×5 cm). All rats were treated from the beginning by placebo. After 50 days all burned rats had open wounds in average 2.3 cm at the neck, 1.3 cm in the middle and 1.8 cm at the tail.
On the 50th day after burning, animals were treated with 1% BAC-3 in ointment without chlorhexidine hydrochloride using the following procedure:
For the first 3 days, burn wounds were treated twice daily. After developing granulation tissue and the first sign of epithelization, animals were treated 3 days with 1% BAC-3 in ointment once daily. For the next four days, animals were treated every second day. After that wounds were treated every third day with 1% BAC-3 in ointment until the entire wound was re-epithelized. Re-epithelization was first completed at the middle of the wounds, then at the tails and finally at the necks. Whole epithelization in all animals was finished in 30 days.

Structures can show the parent of a compound that is named as a salt.

With `CNCCCN1c2ccccc2CCc2ccccc21` [desipramine], in the series with WKY rats [1], the “incidence of stress ulcer” value is given as “reduces the incidence of stress ulcer”. Further, in the series on WKY rats [2], the “immobility in the forced swim test” value is given as “reduces immobility”.
For `c1ccc(C2(N3CCCCC3)CCCCC2)cc1` [PCP, phencyclidine], in the series with mice (mice treated repeatedly with PCP (10 mg/kg per day S.C.), same stress again), the forced swimming-induced immobility result was “enhanced”. Moreover, in the series with mice (mice, PCP 10 mg/kg per day S.C.), the “persistence of the enhancing effect on immobility after withdrawal of the drug” value is reported as “at least 21 days”.
Turning to `Cc1nc2sccn2c(=O)c1CCN1CCC(=C(c2ccc(F)cc2)c2ccc(F)cc2)CC1` [ritanserin], the “PCP-induced enhancement of immobility in the forced swimming test” value in the series with mice (mice) was “attenuated”.
Turning to `[H]/N=C(\N/C(=N/[H])NCCCCCCNC(=N)NC(=N)Nc1ccc(Cl)cc1)Nc1ccc(Cl)cc1` [chlorhexidine hydrochloride, reference compound], the wound irritation result with burn wounds [3] (1% chlorhexidine hydrochloride in combination with BAC-3, rats scratched lower and upper part of burn wounds) was “irritated wounds”.
Consider `Cc1nc2n(c(=O)c1CCN1CCC(c3noc4cc(F)ccc34)CC1)CCCC2` [risperidone], for which, in the series on mice (mice), the “PCP-induced enhancement of immobility in the forced swimming test” value is listed as “attenuated”.
As to `CCCCCCCC(CC(=O)O)OC(=O)CC(CCCCCCC)OC1OC(C)C(O)C(O)C1OC1OC(C)C(O)C(O)C1O` [BAC-3, (α-L-rhamnopyranosyl-(1,2)-α-L-rhamnopyranosyl)-3-hyroxydecanoyl-3-hydroxydecanoic acid], the “collagen and fibrotic lesions after treatment was finished” value with venous ulcer is “disappeared”. For the same compound, in the series with venous ulcer (one year after), the “treated skin lesions one year after the treatment” value was “appear normal”. Besides, in the series on venous ulcer (venous ulcer, left leg), the “patient's condition” value was “significantly improved”. In addition, the “rate of burn wound closure (decrease in wound size) vs vehicle alone” value in the series on burn wounds [3] (0.1% BAC-3 in eucerin, without chlorhexidine, twice daily, days 14-45, FIG. 1) is “significantly faster”. Also, in the series with burn wounds [3] (0.1% BAC-3 in eucerin, without chlorhexidine, days 14, 21 and 28, p<0.05 by ANOVA, FIG. 2), the “extent of burn wound closure (wound size) vs vehicle alone” value was “significantly smaller”. Further, in the series on burn wounds [3] (1% and 0.1% BAC-3 in eucerin vs vehicle, twice daily, 45 days), the “body weights among the treatment groups” value is “no significant differences”. In addition, the crust formation result with burn wounds [3] (between all groups (1% and 0.1% BAC-3, with or without chlorhexidine, placebo), 45 days) was “no significant differences”. Further, the granulation tissue result in the series on burn wounds [3] (group 1-A: 1% BAC-3 in ointment twice daily) and with burn wounds [3] (group 2-A: 1% BAC-3 in ointment plus 1% chlorhexidine hydrochloride twice daily) was “prominently developed” in each case. For the same compound, the “hair growth of dead skin during the healing period” value in the series with burn wounds [3] (group 1-A: 1% BAC-3 in ointment, compared to the other groups) is “very prominent”. The “re-epithelization in the middle part of the burn wounds” value with burn wounds [3] (group 1-B: 0.1% BAC-3 in ointment twice daily) and in the series on burn wounds [3] (group 2-B: 0.1% BAC-3 in ointment plus 1% chlorhexidine hydrochloride twice daily) was “faster” throughout. The “mean value of collagen tissue” value is on record as 8.48 mm^2 in the series on burn wounds [3] (group 1 A: 1% BAC-3, without chlorhexidine) and 5.15 mm^2 in the series on burn wounds [3] (group 1 B: 0.1% BAC-3, without chlorhexidine). Further, the “mean value of collagen concentration relative to group 1 D (placebo)” value in the series on burn wounds [3] (group 1 A: 1% BAC-3) was found to be 131.26; with burn wounds [3] (group 1 B: 0.1% BAC-3), 79.72. In addition, the “tensile strength of incision wounds vs corresponding vehicle” value in the series on incision wounds is “significantly lower”. In addition, in the series with burn wounds [4], the “time to whole epithelization in all animals” value came out at 30 days.

Source of the values: US7262171B1, “Use of rhamnolipids in wound healing, treating burn shock, atherosclerosis, organ transplants, depression, schizophrenia and cosmetics” (Paradigm Biomedical, Inc., priority 1998, dated 2007).
